Laboratory results taken from article PMC8177813 (Journal of pharmaceutical sciences, 2020).
Counter-ions that a name gives are not always drawn. Like-named read-outs stand apart in the source and are kept apart here. Marks after values point to notes of the source that are not given here.

What was measured:
[1] = target: T1, human OAT3 (Homo sapiens, UniProt Q8TCC7); assay: cell-based
T1 sequence (Q8TCC7 1-542): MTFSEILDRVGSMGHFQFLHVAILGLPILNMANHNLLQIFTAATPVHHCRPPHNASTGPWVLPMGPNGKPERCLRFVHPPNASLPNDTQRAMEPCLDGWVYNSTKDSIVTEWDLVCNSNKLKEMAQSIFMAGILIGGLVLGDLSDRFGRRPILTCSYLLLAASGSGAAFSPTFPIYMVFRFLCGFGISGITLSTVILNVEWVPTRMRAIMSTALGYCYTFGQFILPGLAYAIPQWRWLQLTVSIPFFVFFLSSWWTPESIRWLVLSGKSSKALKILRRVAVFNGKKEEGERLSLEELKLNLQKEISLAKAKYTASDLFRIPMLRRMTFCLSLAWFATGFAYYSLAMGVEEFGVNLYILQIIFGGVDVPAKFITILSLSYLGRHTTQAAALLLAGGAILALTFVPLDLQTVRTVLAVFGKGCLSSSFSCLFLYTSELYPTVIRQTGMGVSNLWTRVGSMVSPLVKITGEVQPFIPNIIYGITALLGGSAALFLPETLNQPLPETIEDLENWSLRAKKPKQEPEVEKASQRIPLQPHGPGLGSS

[2] = target: T2, human OAT1 (Homo sapiens, UniProt Q4U2R8); assay: Inhibition of OAT1-mediated 6-carboxyfluorescein
T2 sequence (Q4U2R8 1-563): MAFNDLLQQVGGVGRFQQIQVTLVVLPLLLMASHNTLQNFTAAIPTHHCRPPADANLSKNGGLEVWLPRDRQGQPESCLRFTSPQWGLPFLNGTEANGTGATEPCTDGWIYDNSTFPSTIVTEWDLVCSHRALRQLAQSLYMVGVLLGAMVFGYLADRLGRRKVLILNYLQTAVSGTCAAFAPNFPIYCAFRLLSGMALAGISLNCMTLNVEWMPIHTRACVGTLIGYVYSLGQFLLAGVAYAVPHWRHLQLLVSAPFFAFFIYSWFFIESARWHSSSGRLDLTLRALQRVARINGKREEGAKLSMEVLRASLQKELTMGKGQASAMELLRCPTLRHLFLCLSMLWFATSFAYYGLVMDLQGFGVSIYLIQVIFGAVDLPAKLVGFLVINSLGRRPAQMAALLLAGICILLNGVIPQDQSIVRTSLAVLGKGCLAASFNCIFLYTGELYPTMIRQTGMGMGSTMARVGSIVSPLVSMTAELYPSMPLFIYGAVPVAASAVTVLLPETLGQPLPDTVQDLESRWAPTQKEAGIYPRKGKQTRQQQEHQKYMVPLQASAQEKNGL

[3] = cited from earlier work; for Cmax / Unbound Fraction: plasma
[4] = target: T1, human OAT3; assay: Inhibition of OAT3-mediated 6-carboxyfluorescein
[5] = target: T1, human OAT3
[6] = in vivo
[7] = cited from earlier work
[8] = cited from earlier work; remark: listed apart in the source
[9] = ref https://doi.org/10.1002/j.1552–4604.1993.tb04699.x
[10] = ref https://doi.org/10.1124/jpet.110.165852
[11] = ref https://doi.org/10.1002/cpdd.132
[12] = read-out: Ki (OAT1), HEK293 cells stably transfected with OAT1, 2 μM 6CF, 3 min, 37 °C, […]

Ki [1] | Ki [2] | Molecule | Ki ([4]; read-out: Ki (OAT3)) | Ki ([2]; read-out: Ki (OAT1)) | also measured
0.66 µM | 3.68 µM | CSc1ccc(/C=C2/C(C)=C(CC(=O)O)c3cc(F)ccc32)cc1 [Sulindac sulfide] | – | – | Cmax [3, 9]: 22.6 µM; Unbound Fraction [3, 9]: 6.01%; Unbound Fraction [3, 10]: 4.6%
2.94 µM | 19.9 µM | O=c1n(CCCN2CCN(c3cccc(Cl)c3)CC2)nc2ccccn12 [Trazodone, reference compound] | – | – | –
0.21 µM | 5.7 µM | COc1ccc(Cl)cc1C(=O)NCCc1ccc(S(=O)(=O)NC(=O)NC2CCCCC2)cc1 [Glyburide, reference compound] | – | – | –
> 200 µM | > 200 µM | Cc1ccc(-c2cc(C(F)(F)F)nn2-c2ccc(S(N)(=O)=O)cc2)cc1 [Celecoxib, reference compound] | – | – | –
– | – | CN1C(C(=O)Nc2ncc(C(=O)O)s2)=C(O)c2ccccc2S1(=O)=O [5-Carboxy-meloxicam] | 0.7 µM | 19.6 µM | –
– | – | CC1=C(CC(=O)O)c2cc(F)ccc2/C1=C\c1ccc(S(C)(=O)=O)cc1 [Sulindac sulfone] | 0.6 µM | 23 µM | Cmax [3, 9]: 4.48 µM; Unbound Fraction [3, 10]: 2.1%^b
– | – | CC(=O)c1ccc(CCOc2ccc(CC3SC(=O)NC3=O)cc2)nc1 (centres unmarked) [Keto pioglitazone] | 0.73 µM | 12.5 µM | –
– | – | CCCN(CCC)S(=O)(=O)c1ccc(C(=O)O[C@@H]2O[C@H](C(=O)O)[C@@H](O)[C@H](O)[C@H]2O)cc1 | – | – | Ki [5]: 19.9 µM
0.59 µM | 4.2 µM | CN(CCOc1ccc(CC2SC(=O)NC2=O)cc1)c1ccccn1 (centres unmarked) [Rosiglitazone, reference compound] | – | – | –
– | – | C[C@]12CC[C@@H]3c4ccc(OS(=O)(=O)O)cc4CC[C@H]3[C@@H]1CCC2=O [Estrone sulfate, reference compound] | – | – | Ki [5]: 1 µM
– | – | COc1ccc2cc([C@H](C)C(=O)O[C@@H]3O[C@H](C(=O)O)[C@@H](O)[C@H](O)[C@H]3O)ccc2c1 [(S)-naproxen acyl-β-D-glucuronide] | 5.43 µM | > 200 µM | –
– | – | Cc1c(CC(=O)O)c2cc(O)ccc2n1C(=O)c1ccc(Cl)cc1 [O-desmethyl indomethacin] | 0.27 µM | 1.62 µM | –
1.8 µM | 1.91 µM | CC(C(=O)O)c1ccc(-c2ccccc2)c(F)c1 (centres unmarked) [Flurbiprofen, reference compound] | – | – | –
– | – | CC(=O)C[C@@H](c1ccccc1)c1c(O)c2ccc(O)cc2oc1=O [(S)-7-hydroxy warfarin] | 1.93 µM | 14.5 µM | –
– | – | 4-Hydroxy flurbiprofen | 1.39 µM | 1.6 µM | –
– | – | O=C1NC(=O)C(Cc2ccc(OCCNc3ccccn3)cc2)S1 (centres unmarked) [N-desmethyl rosiglitazone] | 1.15 µM | 33.3 µM | –
– | – | C[C@]12CC[C@H](OS(=O)(=O)O)CC1=CC[C@@H]1[C@@H]2CC[C@]2(C)C(c3cccnc3)=CC[C@@H]12 [Abiraterone sulfate] | 1.83 µM | 38.2 µM | Cmax,u [6]: 0.25 µM; Cmax [3, 11]: 25 µM
0.54 µM | 6.88 µM | Cc1cnc(NC(=O)C2=C(O)c3ccccc3S(=O)(=O)N2C)s1 [Meloxicam, reference compound] | – | – | –

Ki [1] | Ki [2] | Molecule | Ki ([4]; read-out: Ki (OAT3)) | Ki ([2]; read-out: Ki (OAT1)) | also measured
– | – | COc1ccc(Cl)cc1C(=O)NCCc1ccc(S(=O)(=O)NC(=O)N[C@H]2CCC[C@@H](O)C2)cc1 (relative stereo) [3-cis-hydroxycyclohexyl glyburide] | 0.81 µM | – | Ki [2, 12]: 10.1 µM
– | – | Cc1ccc(NC(=O)c2ccc(CN3CC[N+](C)([O-])CC3)cc2)cc1Nc1nccc(-c2cccnc2)n1 [Imatinib (piperidine)-4-oxide] | 64.2 µM | > 200 µM | –
– | – | CC(C)c1nc(N(C)S(C)(=O)=O)nc(-c2ccc(F)cc2)c1/C=C/[C@@H](O)C[C@@H](O)CC(=O)O [rosuvastatin] | – | – | renal clearance as share of total plasma clearance [7]: 28%; share of renal clearance thought to result from OAT3-mediated tubular secretion [7]: 90%
– | – | CN(CCOc1ccc(CC2SC(=O)NC2=O)cc1)c1ccc(O[C@@H]2O[C@H](C(=O)O)[C@@H](O)[C@H](O)[C@H]2O)cn1 (stereo partly drawn) [5-Hydroxy Rosiglitazone β-D-Glucuronide] | > 200 µM | > 200 µM | –
– | – | O=c1n(CCCN2CCN(c3ccc(O)c(Cl)c3)CC2)nc2ccccn12 [4-hydroxy-trazodone] | 16.9 µM | > 200 µM | –
0.81 µM | 3.01 µM | Cc1ccc(C(=O)c2ccc(CC(=O)O)n2C)cc1 [Tolmetin, reference compound] | – | – | –
– | – | Cc1ccc(C(=O)c2ccc(CC(=O)O[C@@H]3O[C@H](C(=O)O)[C@@H](O)[C@H](O)[C@H]3O)n2C)cc1 [Tolmetin β-D-glucuronide] | 2.92 µM | 7.17 µM | –
– | – | CN(CCOc1ccc(CC2SC(=O)NC2=O)cc1)c1ccc(OS(=O)(=O)O)cn1 (centres unmarked) [5-OH-rosiglitazone sulfate] | 1.31 µM | 33.7 µM | –
– | – | C[C@H](C(=O)O)c1ccc2cc(O)ccc2c1 [(S)-O-desmethyl naproxen] | 3.44 µM | 4.7 µM | –
– | – | O=C(O)Cc1ccccc1Nc1c(Cl)cc(O)cc1Cl [4-Hydroxy diclofenac] | 2.03 µM | 0.48 µM | –
1.02 µM | 6.3 µM | CCc1ccc(CCOc2ccc(CC3SC(=O)NC3=O)cc2)nc1 (centres unmarked) [Pioglitazone, reference compound] | – | – | –
0.36 µM | 11.4 µM | CCCCc1nc(Cl)c(CO)n1Cc1ccc(-c2ccccc2-c2nn[nH]n2)cc1 [Losartan, reference compound] | – | – | Unbound Fraction ([3]; ref Drugbank (https://www.drugbank.ca/drugs/DB00678)): 1.4%^d
> 20 µM | > 20 µM | C[C@]12CC[C@H](O)CC1=CC[C@@H]1[C@@H]2CC[C@]2(C)C(c3cccnc3)=CC[C@@H]12 [Abiraterone, reference compound] | – | – | basic pKa [8]: 5.19; Cmax [3, 11]: 0.37 µM
0.11 µM | – | COc1ccc2c(c1)c(CC(=O)O)c(C)n2C(=O)c1ccc(Cl)cc1 [Indomethacin] | – | – | –
1.37 µM | 27.6 µM | CC(O)c1ccc(CCOc2ccc(CC3SC(=O)NC3=O)cc2)nc1 (centres unmarked) [Hydroxy pioglitazone] | – | – | –
1.65 µM | 56.8 µM | CC1=C(CC(=O)O)c2cc(F)ccc2/C1=C\c1ccc([S+](C)[O-])cc1 (centres unmarked) [Sulindac, reference compound] | – | – | Unbound Fraction [3, 9]: 6.78%^a
– | – | C[C@]12CC[C@H](OS(=O)(=O)O)CC1=CC[C@@H]1[C@@H]2CC[C@]2(C)C(c3ccc[n+]([O-])c3)=CC[C@@H]12 [Abiraterone N-oxide sulfate] | 1.36 µM | – | Cmax,u [6]: 0.092 µM; Ki [2, 12]: > 100 µM; Cmax [3, 11]: 9.2 µM
– | – | NS(=O)(=O)c1ccc(-n2nc(C(F)(F)F)cc2-c2ccc(C(=O)O)cc2)cc1 [Celecoxib carboxylic acid] | 8.43 µM | 262 µM | acidic pKa [8]: 3.98

Molecule | Ki [1] | Ki [2] | Ki ([4]; read-out: Ki (OAT3)) | Ki ([2]; read-out: Ki (OAT1)) | also measured
CCCCc1nc(Cl)c(C(=O)O)n1Cc1ccc(-c2ccccc2-c2nn[nH]n2)cc1 [Losartan carboxylic acid] | 0.1 µM | 0.69 µM | – | – | times more potent in inhibiting OAT3 than parent drug ([4]; metabolite versus losartan): 3.6 times; times more potent in inhibiting OAT1 than parent drug ([2]; metabolite versus losartan): 16.5 times; plasma unbound fraction ([3]; no reference given): lower than 1%
CC(C(=O)O)c1cccc(C(=O)c2ccccc2)c1 (centres unmarked) [Ketoprofen, reference compound] | – | 1.73 µM | – | – | Ki [4]: 1.61 µM
CC(=O)CC(c1ccccc1)c1c(O)c2ccccc2oc1=O (centres unmarked) [Warfarin, reference compound] | – | 15.8 µM | – | – | Ki [4]: 3.11 µM
